Data published in a melting point compilation (Tetko et al.; mined from patent text by program, amines drawn as free bases though some values may be those of a salt).

| Structure (SMILES) | melting point [°C] |
| --- | --- |
| COc1cccc2c(Nc3ccc(C(=O)NC4CCN(Cc5ccccc5)CC4)cc3)c(C(=O)NC3CCN(C)CC3)cnc12 | 230 to 232 |
| Cc1c(NC(=O)c2ccc(OCC3CCOC3)cc2)ccc2cc(CNC(C)C)cnc12 (stereo not given) | 106 |
| CCNC(=O)N(O)CC#Cc1cccc(C2=N[C@H](c3ccccc3)CO2)c1 | 141 to 143 |
| CCOC(=O)c1ccc(NCCCCCCCCc2ccccc2)cc1 | 61 to 68 |
| C=Cc1cn(-c2c(Cl)cc(C(F)(F)F)cc2Cl)nc1C#N | 75 to 76 |
| CNC(=O)CNC(=O)CN1CCCC1=O | 139 to 140 |
| c1c(N2CCCC2)nc(N2CCCC2)nc1N1CCN(CCN2CCNCC2)CC1 | 148 to 149 |
| CCCn1ncc2c(=O)[nH]c(-c3cc(S(=O)(=O)Cl)ccc3OCC)nc21 | 177 to 180 |
| Cc1c(O)nc2ccccc2c1C(=O)O | > 300 |
| Cc1nc(NC(=O)N(C)C)nc(C)c1Cl | 127 to 129 |
| CCOC(=O)C(=NOCC(N)=O)c1csc(NC(c2ccccc2)(c2ccccc2)c2ccccc2)n1 | 180 |
| NS(=O)(=O)c1cc(CCNC(=O)C=Cc2cccs2)ccc1OCC1CCCO1 (stereo not given) | 180 to 185 |
| N#CCCc1oc(/C=C/c2ccccc2)nc1-c1ccccc1 | 117 to 118 |
| Cc1c(C)c(C(CO)c2ccc(C(C)C)cc2)c(O)c(C)c1Br (stereo not given) | 96 to 97 |
| CN(CCOc1ccc(CC(SCCN)C(=O)O)cc1)c1nc2ccccc2o1 (stereo not given) | 200 to 201 |
| O=C1NCN(c2ccccc2)C12CCN(CC1=Cc3ccccc3CC1)CC2 | 205 to 206 |
| CCOCc1nc2c(N)nc3cc(-c4ccccc4)ccc3c2n1CC(C)(C)NS(C)(=O)=O | 239 to 242 |
| CCCCOc1ccc(S(C)(=O)=O)cc1-c1nc2c(CC)n(CCOC)nc2c(=O)[nH]1 | 174 to 176 |
| Cc1cc(C)nc(NC(=O)NS(=O)(=O)c2ccccc2C(=O)O)n1 | 160 |
| O=[N+]([O-])c1cc(NCCO)ccc1NCCO | 107 |
| Cc1c(O)ccc2c(C(F)(F)F)cc(=O)oc12 | 114 to 116 |
| CC#Cc1ccc(NC(=O)c2ccccc2NCc2ccncc2)cc1 | 147 to 155 |
| CCCCc1c(/C=C/C(=O)O)ccc2c(OC)cccc12 | 202 to 204 |

| Structure (SMILES) | melting point [°C] |
| --- | --- |
| CN(C)C(=O)c1ccc(NC(=O)C(C)(C)C)cc1C(F)(F)F | 199 to 200 |
| CCC(=O)c1c(C)cc(NC(C)(C)C)nc1NC(C)(C)C | 102 to 103 |
| CCCCCCCCCCCCCCOc1ccccc1C(=O)OC | 39 to 40 |
| N=C(N)SCc1cccc(CSC(=N)N)c1 | 216 to 218 |
| ClCCCCCCOc1ccc(C2=C(c3ccccc3)CCCc3cc(OC4CCCCO4)ccc32)cc1 (stereo not given) | 84 to 86 |
| NC(=O)c1cccc2c1CCCc1ccccc1-2 | > 250 |
| CCNC(=O)c1ccc(F)cc1 | 73.2 to 76.3 |
| CCCC1=C(C#N)C(c2ccccc2Cl)c2c(n[nH]c2C2CCCC2)N1 (stereo not given) | > 270 |
| c1ccc(COc2cc(OCc3ccccc3)cc(OCc3ccccc3)c2)cc1 | 91.5 to 91.9 |
| O=C(O)c1c(C(O)=S)cc([N+](=O)[O-])cc1-c1ccccc1 | 182 to 184 |
| CC(C)CC(=O)C(=O)OCc1ccccc1 | 98 to 100 |
| COc1ccc(OC)c2c1C(=O)C=C(SCCCCCCCCCCC(=O)NCC(C)C)C2=O | 74 to 75 |
| CCCCCCCCCCCCCCc1ccc(O)c(C(=O)CCCCC)c1 | 41 to 42 |
| O=C1CC(c2cccc(-c3csc(C(=O)NCCO)n3)c2)=Nc2ccc(-n3cccc3)cc2N1 | 236 to 238 |
| Cc1cc(Br)cc2ccc(Cl)nc12 | 114 to 116 |
| O=C1N[C@H](C(=O)NCCCCO[N+](=O)[O-])CS1 | 68 to 70 |
| O=C(NC1CCCC1)c1cc2ccncc2[nH]1 | 220 to 224 |
| CCOC(=O)C(O)c1cc(F)cc2cccnc12 (stereo not given) | 84 to 87 |
| COC(=O)c1[nH]cc(Cc2ccsc2)c1N | 108 to 110 |
| Cc1oncc1C(=O)Nc1ccc(-n2nc(C(F)(F)F)cc2C2CC2)cc1 | 90 to 95 |
| CN1CCN(c2cccc3c2C[C@H](NC(=O)c2ccc(N4CCNCC4)cc2)CO3)CC1 | > 102 |
| CCNC(=O)n1nc(Oc2c(Cl)cc(C(F)(F)F)cc2Cl)cc1CC | 86 to 89 |
| CCCCCCN(Cc1ccc2ccccc2n1)C(Nc1cc(C(C)(C)C)c(O)c(C(C)(C)C)c1)=C1C(=O)OC(C)(C)OC1=O | 161 to 163 |

| Structure (SMILES) | melting point [°C] |
| --- | --- |
| CCOc1ccccc1N1CCN(CCC2OCCc3cc(C(N)=O)ccc32)CC1 (stereo not given) | 208 to 210 |
| Cc1c(-c2ccc(N(C)C)nn2)ssc1=S | 216 |
| O=C(NC1CCC(CCN2CCC(c3cccc4c3CCO4)CC2)CC1)C1CCOC1 (racemic) | 211 |
| CC(C(=O)N(C)C)n1cc(Br)c(-c2ccccc2)n1 (stereo not given) | 90.5 to 91.5 |
| O=C(Cn1ncc(-c2ccccc2)c1-c1ccccc1)NCCCO | 138 to 139 |
| OC[C@H](O)COc1ccccc1OCC1CC1 | 95 to 97 |
| CCCCCCCc1cc(O)cc2c1C(=O)OC(C)(C)O2 | 100 to 102 |
| Fc1cc2c(-c3cccs3)c(CBr)cnc2c(F)c1F | 98 to 100 |
| O=C(O)c1ccc(Cl)c2c1OCCO2 | 195 |
| CC1CCOC(CBr)(c2ccc(Cl)cc2Cl)O1 (stereo not given) | 69 to 70.5 |
| CSc1c(F)cc(CC(=O)c2ccccc2)cc1F | 71.8 to 71.9 |
| Cc1oc(-c2ccccc2)nc1COc1ccc(C=CC=O)cc1F | 133 to 134 |
| NC(=O)N1CC(Oc2cccc(Br)c2)C1 | 188 to 189 |
| CCc1ccc([N+]([O-])=Cc2ccc(C)cc2)cc1 | 97 to 99 |
| O=C(CCCCNCCOc1cccc2cccnc12)NC1CCCCC1 | 113 to 119 |
| COc1ccc2[nH]c(S(=O)Cc3cc(N4CCOCC4)c(F)cn3)nc2c1 (stereo not given) | 109 to 111 |
| O=C(NCCNc1c(Cl)cncc1Cl)C1CCN(c2c(Cl)cncc2Cl)CC1 | 157 to 159 |
| FC(F)c1nc2ccccc2n1-c1nc(NCc2ccncc2)nc(N2CCOCC2)n1 | 188 to 190 |
| C[C@@H](Nc1c(-c2c(F)cc(F)cc2F)c(Cl)nc2ncnn12)C(C)(C)C | 169 to 171 |
| Clc1ccc2c(c1)C(c1ccccc1)=NCc1c[nH]cc1-2 | 203 to 206 |
| COc1ccc(S(=O)(=O)Nc2ccccc2NC(=O)c2ccc(F)cc2)cc1 | 169 to 170 |
| Cc1cccnc1NC(=O)Nc1cccc2c1C1CC(O)CCN1C2=O (stereo not given) | 204 to 206 |

Continued, values first:

| melting point [°C] | Structure (SMILES) |
| --- | --- |
| 108 to 110 | FC(F)(F)Oc1ccc(-c2cc(-n3ccc(C(F)(F)F)n3)c3ccccc3n2)cc1 |
| 170 to 171 | Cc1nnc(-c2ccc3occ(-c4ccc(SC(F)(F)F)cc4)c3c2)o1 |
| 207 to 209 | CS(=O)(=O)c1ccc(-c2cc(N)sc2-c2ccc(F)cc2)cc1 |
| 170 to 172 | OC(CSc1ccnc2ccccc12)c1ccc2ccccc2c1 (stereo not given) |
| 138 to 140 | O=C(c1ccc(Cl)c(Cl)c1)N1CCCC(c2ccc(Br)s2)=N1 |
| 182 to 185 | C[C@H](CN1CC(F)C1)NC(=O)c1c[nH]c2ncc(-c3nn(C)c4cc(Cl)ccc34)nc12 |
| 187 to 188 | Cc1ccc(-c2ccc(S(C)(=O)=O)cc2)n1-c1ccc(-c2ccsc2)cc1 |
| 52 to 54 | Cc1cc(C)cc(C(=O)N2CCN(C(=O)CNC3CCN(CCCc4ccccc4)CC3)C(c3ccc(Cl)c(Cl)c3)C2)c1 (racemic) |
| 200 to 204 | COc1ccc2c(c1)C(CC(=O)O)=C(C)C2=Cc1ccc(S(C)=O)cc1 (stereo not given) |
| 219 to 221 | NS(=O)(=O)c1cc(C(=O)Nc2ccccc2)ccc1F |
| 273 to 276 | O=C(O)c1cn(Cc2nccs2)c2cc(N3CCN(c4ccncc4)CC3)ccc2c1=O |
| 167 to 169 | CS(=O)(=O)c1ccc(-c2cnn(C=C(F)C(F)(F)C(F)(F)F)c(=O)c2-c2ccc(F)cc2)cc1 |
| 118 to 119 | CC(C)n1nc(CO)cc1OCc1ccc2ccccc2n1 |
| 147 to 148 | COc1ccc(-c2nc(CCn3ccnc3)nc3cc(OC)c(OC)cc23)cc1OC |
| 224 to 226 | NS(=O)(=O)c1ccc(-c2cnn(-c3ccc(F)c(F)c3)c(=O)c2Oc2ccc(F)cc2)cc1 |
| 208 | O=CNc1ccnc(C(=O)Nc2ccc(Oc3ccccc3)cc2)c1O |

| melting point [°C] | Structure (SMILES) |
| --- | --- |
| 173 | Cc1ccc(-c2ccc(C(=O)Nc3ccc4cc(CN5CCCC5)cnc4c3F)c(F)c2)cc1 |
| 211 to 212 | CCc1csc(Cc2ccc(NC(=O)/C=C/c3cnn(C)c3-c3ccc(F)cc3)cc2)n1 |
| 160 | O=C1C(O)N(c2ccc(Oc3ccccc3)cc2)C(=S)N1c1ccccc1 (stereo not given) |
| 180 | O=C1CN(c2ccc(CC3NC(=O)c4ccccc4NC3=O)cc2O)S(=O)(=O)N1 (stereo not given) |
| 235 to 237 | c1cc(N2CCCN(c3ccc(-c4ccc5c(c4)OCO5)cn3)CC2)ncc1-c1ccc2c(c1)OCO2 |
| 138 | Oc1ccc(C=C2c3ccccc3CCc3ccccc32)cc1O |
| 78 to 80 | Oc1ccc(-c2nn(-c3cc(Cl)ccc3Cl)c3cc(O)ccc23)c(O)c1 |
| 229 to 230 | O=C(Nc1ccccc1)c1cc(Br)ccc1O |
| 93.5 to 100 | COc1ccc(NC(=O)Nc2nc3nc(NCCCN4CCN(C)CC4)ncc3cc2-c2c(Cl)cccc2Cl)cc1 |
| 199 to 200 | CN(Cc1ccccc1O)c1nc(N(C)Cc2ccccc2O)nc(N(C)Cc2ccccc2O)n1 |
| 83.5 to 85 | Oc1ccc(Oc2ccc(Br)cc2F)cc1 |
| 98 to 100 | CCCCC(Cc1ccc(OCCNC(=O)c2ccc(-c3cccc(O)c3)cc2)cc1)C(=O)O (stereo not given) |
| 164 to 168 | CCOC(=O)/C=C/c1cc(-c2ccccc2)n(-c2ccc(S(C)(=O)=O)cc2)n1 |
| 140 to 146 | O=C(C=C(c1cc(Cl)cc(Cl)c1)C(F)(F)F)c1ccc(C(=O)NC2CCCO2)cc1 (stereo not given) |
| 92 to 94 | COC(=O)[C@H](c1ccccc1Cl)N1CCc2sc(OC(=O)c3cccnc3)cc2C1 |
| 94 to 95 | COCCNC(=O)c1ccnc(-c2cccc3cc(Cc4cccc(C(F)(F)F)c4)sc23)c1F |
